Source: ChEMBL document CHEMBL4261633, “Butenolides from a marine-derived fungus Aspergillus terreus with antitumor activities against pancreatic ductal adenocarcinoma cells” (Bioorg Med Chem, 2018)
Active and inactive are the calls of the source. The rule behind the calls is not given here.

Columns and labels:
HT-29 = test: Antiproliferative activity against human HT-29 cells after 24 hrs by CCK8 assay; assay type: functional, cell-based; details: HT-29, 24 h
BEAS-2B = test: Antiproliferative activity against human BEAS2B cells after 24 hrs by CCK8 assay; assay type: functional, cell-based
HepG2 = test: Antiproliferative activity against human HepG2 cells after 24 hrs by CCK8 assay; assay type: functional, cell-based; details: HepG2, 24 h
PANC-1 [1] = test: Antiproliferative activity against human PANC1 cells after 24 hrs by CCK8 assay; assay type: functional, cell-based; details: PANC-1, 24 h
HCC1806 = test: Antiproliferative activity against human HCC1806 cells after 24 hrs by CCK8 assay; assay type: functional, cell-based; details: HCC1806, 24 h
PANC-1 [2] = test: Cell cycle arrest in human PANC1 cells assessed as accumulation at S phase at 5 uM after 24 hrs by RNAase/propidium iodide staining-based flow cytometric analysis (reference value: 11.66 to 19.02%); assay type: functional
PANC-1 [3] = test: Induction of apoptosis in human PANC1 cells assessed as viable cells at 10 uM after 24 hrs by FITC-Annexin V/propidium iodide staining-based flow cytometric analysis (reference value: 94.7 to 98.7%); assay type: functional; details: PANC-1, 24 h, read-out: Activity
PANC-1 [4] = test: Induction of apoptosis in human PANC1 cells assessed as nuclear chromatin condensation at 25 uM after 24 hrs by Hoechst 33258 staining based fluorescence microscopic analysis; assay type: functional, cell-based
PANC-1 [5] = test: Induction of apoptosis in human PANC1 cells assessed as viable cells at 15 uM after 24 hrs by FITC-Annexin V/propidium iodide staining-based flow cytometric analysis (reference value: 94.7 to 98.7%); assay type: functional; details: PANC-1, 24 h, read-out: Activity
PANC-1 [6] = test: Induction of apoptosis in human PANC1 cells assessed as early apoptotic cells at 15 uM after 24 hrs by FITC-Annexin V/propidium iodide staining-based flow cytometric analysis (reference value: 0.5 to 3.2%); assay type: functional
PANC-1 [7] = test: Induction of apoptosis in human PANC1 cells assessed as late apoptotic cells at 10 uM after 24 hrs by FITC-Annexin V/propidium iodide staining-based flow cytometric analysis (reference value: 0.0 to 0.7%); assay type: functional
PANC-1 [8] = test: Cell cycle arrest in human PANC1 cells assessed as accumulation at G2/M phase at 15 uM after 24 hrs by RNAase/propidium iodide staining-based flow cytometric analysis (reference value: 6.83 to 11.82%); assay type: functional
PANC-1 [9] = test: Cell cycle arrest in human PANC1 cells assessed as accumulation at G2/M phase at 25 uM after 24 hrs by RNAase/propidium iodide staining-based flow cytometric analysis (reference value: 6.83 to 11.82%); assay type: functional
PANC-1 [10] = test: Cell cycle arrest in human PANC1 cells assessed as accumulation at G1 phase at 5 uM after 24 hrs by RNAase/propidium iodide staining-based flow cytometric analysis (reference value: 67.93 to 75.87%); assay type: functional
PANC-1 [11] = test: Cell cycle arrest in human PANC1 cells assessed as accumulation at S phase at 25 uM after 24 hrs by RNAase/propidium iodide staining-based flow cytometric analysis (reference value: 11.66 to 19.02%); assay type: functional
PANC-1 [12] = test: Induction of apoptosis in human PANC1 cells assessed as early apoptotic cells at 10 uM after 24 hrs by FITC-Annexin V/propidium iodide staining-based flow cytometric analysis (reference value: 0.5 to 3.2%); assay type: functional
PANC-1 [13] = test: Induction of apoptosis in human PANC1 cells assessed as nuclear shrinkage at 5 uM after 24 hrs by Hoechst 33258 staining based fluorescence microscopic analysis; assay type: functional, cell-based
PANC-1 [14] = test: Induction of apoptosis in human PANC1 cells assessed as nuclear fragmentation at 5 uM after 24 hrs by Hoechst 33258 staining based fluorescence microscopic analysis; assay type: functional, cell-based
PANC-1 [15] = test: Induction of apoptosis in human PANC1 cells assessed as late apoptotic cells at 15 uM after 24 hrs by FITC-Annexin V/propidium iodide staining-based flow cytometric analysis (reference value: 0.0 to 0.7%); assay type: functional
PANC-1 [16] = test: Cell cycle arrest in human PANC1 cells assessed as accumulation at G1 phase at 10 uM after 24 hrs by RNAase/propidium iodide staining-based flow cytometric analysis (reference value: 67.93 to 75.87%); assay type: functional
PANC-1 [17] = test: Cell cycle arrest in human PANC1 cells assessed as accumulation at G1 phase at 25 uM after 24 hrs by RNAase/propidium iodide staining-based flow cytometric analysis (reference value: 67.93 to 75.87%); assay type: functional
PANC-1 [18] = test: Induction of apoptosis in human PANC1 cells assessed as early apoptotic cells at 5 uM after 24 hrs by FITC-Annexin V/propidium iodide staining-based flow cytometric analysis (reference value: 0.5 to 3.2%); assay type: functional
PANC-1 [19] = test: Cell cycle arrest in human PANC1 cells assessed as accumulation at S phase at 10 uM after 24 hrs by RNAase/propidium iodide staining-based flow cytometric analysis (reference value: 11.66 to 19.02%); assay type: functional
PANC-1 [20] = test: Induction of apoptosis in human PANC1 cells assessed as viable cells at 25 uM after 24 hrs by FITC-Annexin V/propidium iodide staining-based flow cytometric analysis (reference value: 94.7 to 98.7%); assay type: functional; details: PANC-1, 24 h, read-out: Activity
PANC-1 [21] = test: Induction of apoptosis in human PANC1 cells assessed as necrotic cells at 5 uM after 24 hrs by FITC-Annexin V/propidium iodide staining-based flow cytometric analysis (reference value: 0.7 to 1.4%); assay type: functional
PANC-1 [22] = test: Induction of apoptosis in human PANC1 cells assessed as nuclear shrinkage at 25 uM after 24 hrs by Hoechst 33258 staining based fluorescence microscopic analysis; assay type: functional, cell-based
PANC-1 [23] = test: Induction of apoptosis in human PANC1 cells assessed as necrotic cells at 10 uM after 24 hrs by FITC-Annexin V/propidium iodide staining-based flow cytometric analysis (reference value: 0.7 to 1.4%); assay type: functional
PANC-1 [24] = test: Induction of apoptosis in human PANC1 cells assessed as viable cells at 5 uM after 24 hrs by FITC-Annexin V/propidium iodide staining-based flow cytometric analysis (reference value: 94.7 to 98.7%); assay type: functional; details: PANC-1, 24 h, read-out: Activity
PANC-1 [25] = test: Induction of apoptosis in human PANC1 cells assessed as necrotic cells at 25 uM after 24 hrs by FITC-Annexin V/propidium iodide staining-based flow cytometric analysis (reference value: 0.7 to 1.4%); assay type: functional
PANC-1 [26] = test: Induction of apoptosis in human PANC1 cells assessed as early apoptotic cells at 25 uM after 24 hrs by FITC-Annexin V/propidium iodide staining-based flow cytometric analysis (reference value: 0.5 to 3.2%); assay type: functional
PANC-1 [27] = test: Cell cycle arrest in human PANC1 cells assessed as accumulation at S phase at 15 uM after 24 hrs by RNAase/propidium iodide staining-based flow cytometric analysis (reference value: 11.66 to 19.02%); assay type: functional
PANC-1 [28] = test: Induction of apoptosis in human PANC1 cells assessed as necrotic cells at 15 uM after 24 hrs by FITC-Annexin V/propidium iodide staining-based flow cytometric analysis (reference value: 0.7 to 1.4%); assay type: functional
PANC-1 [29] = test: Induction of apoptosis in human PANC1 cells assessed as nuclear chromatin condensation at 5 uM after 24 hrs by Hoechst 33258 staining based fluorescence microscopic analysis; assay type: functional, cell-based
PANC-1 [30] = test: Induction of apoptosis in human PANC1 cells assessed as nuclear fragmentation at 25 uM after 24 hrs by Hoechst 33258 staining based fluorescence microscopic analysis; assay type: functional, cell-based
PANC-1 [31] = test: Induction of apoptosis in human PANC1 cells after 24 hrs by FITC-Annexin V/propidium iodide staining-based flow cytometric analysis; assay type: functional, cell-based
PANC-1 [32] = test: Cell cycle arrest in human PANC1 cells assessed as accumulation at G2/M phase at 10 uM after 24 hrs by RNAase/propidium iodide staining-based flow cytometric analysis (reference value: 6.83 to 11.82%); assay type: functional
PANC-1 [33] = test: Cell cycle arrest in human PANC1 cells assessed as accumulation at G1 phase at 15 uM after 24 hrs by RNAase/propidium iodide staining-based flow cytometric analysis (reference value: 67.93 to 75.87%); assay type: functional
PANC-1 [34] = test: Induction of apoptosis in human PANC1 cells assessed as late apoptotic cells at 5 uM after 24 hrs by FITC-Annexin V/propidium iodide staining-based flow cytometric analysis (reference value: 0.0 to 0.7%); assay type: functional
PANC-1 [35] = test: Induction of apoptosis in human PANC1 cells assessed as late apoptotic cells at 25 uM after 24 hrs by FITC-Annexin V/propidium iodide staining-based flow cytometric analysis (reference value: 0.0 to 0.7%); assay type: functional
PANC-1 [36] = test: Cell cycle arrest in human PANC1 cells assessed as accumulation at G2/M phase at 5 uM after 24 hrs by RNAase/propidium iodide staining-based flow cytometric analysis (reference value: 6.83 to 11.82%); assay type: functional

## COC(=O)[C@]1(Cc2ccc3c(c2)CCC(C)(C)O3)OC(=O)C(O)=C1c1ccc(O)cc1
HT-29
  IC50: > 20 µM
BEAS-2B
  IC50: > 20 µM
HepG2
  IC50: > 20 µM
PANC-1 [1]
  IC50: > 20 µM
HCC1806
  IC50: > 20 µM

## COC(=O)[C@]1(Cc2ccc(O)c(CC3OC3(C)C)c2)OC(=O)C(O)=C1c1ccc(O)cc1 (stereo not given in full)
HT-29
  IC50: > 20 µM
BEAS-2B
  IC50: > 20 µM
HepG2
  IC50: > 20 µM
PANC-1 [1]
  IC50: > 20 µM
HCC1806
  IC50: > 20 µM

## COC(=O)[C@]1(Cc2ccc(O)c(CC=C(C)C)c2)OC(=O)C(O)=C1c1ccc(O)c(CC=C(C)C)c1
PANC-1 [2]
  Activity: 35.11%
PANC-1 [3]
  viability at 10 µM: 87.9%
PANC-1 [4]
  Activity: Active
PANC-1 [5]
  viability at 15 µM: 49.1%
PANC-1 [6]
  Activity: 48.5%
PANC-1 [7]
  Activity: 1.2%
HT-29
  IC50: > 20 µM
PANC-1 [8]
  Activity: 38.12%
PANC-1 [9]
  Activity: 35.78%
PANC-1 [10]
  Activity: 49.89%
PANC-1 [11]
  Activity: 41.26%
PANC-1 [12]
  Activity: 9.3%
PANC-1 [13]
  Activity: Active
PANC-1 [14]
  Activity: Active
PANC-1 [15]
  Activity: 0.7%
BEAS-2B
  IC50: > 20 µM
HepG2
  IC50: 9 µM
PANC-1 [16]
  Activity: 45.36%
PANC-1 [17]
  Activity: 20.46%
PANC-1 [18]
  Activity: 4.8%
PANC-1 [1]
  IC50: 5.3 µM
PANC-1 [19]
  Activity: 38.96%
PANC-1 [20]
  viability at 25 µM: 44.5%
PANC-1 [21]
  Activity: 0.2%
PANC-1 [22]
  Activity: Active
PANC-1 [23]
  Activity: 1.6%
PANC-1 [24]
  viability at 5 µM: 94.7%
PANC-1 [25]
  Activity: 1.3%
PANC-1 [26]
  Activity: 42.7%
PANC-1 [27]
  Activity: 38.47%
PANC-1 [28]
  Activity: 1.6%
PANC-1 [29]
  Activity: Active
PANC-1 [30]
  Activity: Active
PANC-1 [31]
  Activity: Dose-dependent effect
PANC-1 [32]
  Activity: 10.09%
HCC1806
  IC50: 17.6 µM
PANC-1 [33]
  Activity: 20.44%
PANC-1 [34]
  Activity: 0.3%
PANC-1 [35]
  Activity: 11.6%
PANC-1 [36]
  Activity: 14.43%

## COC(=O)[C@]1(Cc2ccc3c(c2)C[C@H](C(C)(C)O)O3)OC(=O)C(O)=C1c1ccc(O)cc1 [BUTYROLACTONE IV]
HT-29
  IC50: > 20 µM
BEAS-2B
  IC50: > 20 µM
HepG2
  IC50: > 20 µM
PANC-1 [1]
  IC50: > 20 µM
HCC1806
  IC50: > 20 µM

## COC(=O)[C@]1(Cc2ccc(O)c(C[C@@H](O)C(C)C)c2)OC(=O)C(O)=C1c1ccc(O)cc1
HT-29
  IC50: > 20 µM
BEAS-2B
  IC50: > 20 µM
HepG2
  IC50: > 20 µM
PANC-1 [1]
  IC50: > 20 µM
HCC1806
  IC50: > 20 µM

## COC(=O)[C@]1(Cc2ccc3c(c2)C=CC(C)(C)O3)OC(=O)C(O)=C1c1ccc(O)cc1
HT-29
  IC50: > 20 µM
BEAS-2B
  IC50: > 20 µM
HepG2
  IC50: > 20 µM
PANC-1 [1]
  IC50: > 20 µM
HCC1806
  IC50: > 20 µM
